Results as given in patent US8232317B2, “Method for increasing hair growth” (E-L Management Corp., priority 2003, dated 2012).
“And” between values parts separate entries of the source, which are not always exact repeats. Equal values may be shown once.

Tests used:
[1] = tested on: Normal Human Dermal Papilla Cells; assay: DNA synthesis ([H]3-thymidine incorporation) in dermal papilla cells; format: cell-based; settings: for [H] counts to denote incorporated Thymidine (relative DNA synthesis): individual replicates
Method: Methods: Normal Human Dermal Papilla Cells were obtained from Cell Applications Incorporated (San Diego, Calif.) which isolates the dermal papilla cells from hair plugs. Papilla cells were grown to 70% in 24 well plates. […] These treatments were carried out for 24 hours before [H]^3-Thymidine label (1 μCi/ml) was added in each well. DNA synthesis, an indicator of cell proliferation, was measured 24 hours later as a function of [H]^3-Thymidine incorporation.

hair plugs = assay: Hair growth in hair plugs exposed to creatine; format: cell-based; settings: creatine 1 mM; for Actual length of hair plugs / Hair growth normalized to length at day 0: individual plugs; for Average hair growth: n=6
Method: Methods: Hair plugs were obtained from East Wood Medical Hair Transplant Surgery (Garden City, N.Y.). These hair plugs were equilibrated in hair plug media as described in the literature (DMEM, 10% FBS, 1% PS, 25 mg insulin, 25 μg fungizone). These hair plugs were measured under the microscope one the first day of arrival and treated with creatine at 1 mM (n=6 for control and creatine group respectively). These hair plugs were then kept in the incubator at 37° C. in 5% CO2. On day 3, 7, & 10, re-treatments were made as well as measurements.

| SMILES | % increase compared to control (thymidine uptake / DNA synthesis) ([1]; 0.25 mM) | % increase compared to control (thymidine uptake / DNA synthesis) ([1]; 0.5 mM) | % increase compared to control (thymidine uptake / DNA synthesis) ([1]; 1 mM) | Average thymidine uptake ([1]; 0.25 mM) | [H] counts to denote incorporated Thymidine (relative DNA synthesis) ([1]; 0.25 mM) | Average thymidine uptake ([1]; 0.5 mM) | [H] counts to denote incorporated Thymidine (relative DNA synthesis) ([1]; 0.5 mM) | Average thymidine uptake ([1]; 1 mM) | [H] counts to denote incorporated Thymidine (relative DNA synthesis) ([1]; 1 mM) | other results |
| --- | --- | --- | --- | --- | --- | --- | --- | --- | --- | --- |
| Nc1ncnc2c1ncn2[C@@H]1O[C@H](COP(=O)(O)O)[C@@H](O)[C@H]1O [AMP] | 1493% | 1930% | 1449% |  |  |  |  |  |  |  |
| Nc1ncnc2c1ncn2[C@@H]1O[C@H](COP(=O)(O)OP(=O)(O)OP(=O)(O)O)[C@@H](O)[C@H]1O [ATP] | 1411% | 1201% |  |  |  |  |  |  |  |  |
| CN(CC(=O)O)C(=N)N [Creatine, creatine] | 35.66% | 24.78% | 5.697% | 25229.47 | 27441.5 counts and 24848.2 counts and 23398.7 counts | 23206.37 | 21850.6 counts and 23029.9 counts and 24738.6 counts | 19657.6 | 20190.6 counts and 18789.8 counts and 19992.4 counts | % increase compared to control (thymidine uptake / DNA synthesis) ([1]; 0.25 mM, listed as creatine): 36%; % increase compared to control (thymidine uptake / DNA synthesis) ([1]; 0.5 mM, listed as creatine): 25%; % increase compared to control (thymidine uptake / DNA synthesis) ([1]; 1 mM, listed as creatine): 6%; Actual length of hair plugs (hair plugs; Day 0 (baseline)): 3.8 mm and 6.3 mm and 8.1 mm and 8.3 mm and 8.2 mm and 7.6 mm; Average hair growth (hair plugs; Day 0): 0 mm; % increase compared to untreated (hair growth) (hair plugs; Day 3): 96.6%; Actual length of hair plugs (hair plugs; Day 3): 4.7 mm and 7.1 mm and 9.5 mm and 9.1 mm (2×) and 8.5 mm; Hair growth normalized to length at day 0 (hair plugs; Day 3): 0.9 mm (3×) and 0.8 mm (2×) and 1.4 mm; Average hair growth (hair plugs; Day 3): 0.95 mm; % increase compared to untreated (hair growth) (hair plugs; Day 7): 79.5%; Actual length of hair plugs (hair plugs; Day 7): 5 mm and 7 mm and 9.6 mm (2×) and 9.8 mm and 9.2 mm; Hair growth normalized to length at day 0 (hair plugs; Day 7): 1.2 mm and 0.7 mm and 1.5 mm and 1.3 mm and 1.6 mm (2×); Average hair growth (hair plugs; Day 7): 1.32 mm and 1.317 mm; % increase compared to untreated (hair growth) (hair plugs; Day 10): 75.5%; Actual length of hair plugs (hair plugs; Day 10): 5.5 mm and 7 mm and 9.7 mm (2×) and 9.8 mm and 9.2 mm; Hair growth normalized to length at day 0 (hair plugs; Day 10): 1.7 mm and 0.7 mm and 1.6 mm (3×) and 1.4 mm; Average hair growth (hair plugs; Day 10): 1.43 mm and 1.433 mm; Increase in hair growth compared to the untreated plugs (hair plugs; over 10 days): two fold |
| O=C(O)CC(=O)C(=O)O [Oxaloacetate, oxaloacetic acid (oxaloacetate)] | 22% | 33% | 38% | 22609.37 | 26907.8 counts and 21897.4 counts and 19022.9 counts | 24782.97 | 24483.7 counts and 21467.8 counts and 28397.4 counts | 25586.67 | 25537.3 counts and 25092.4 counts and 26130.3 counts | % increase compared to control (thymidine uptake / DNA synthesis) ([1]; 0.25 mM, listed as Oxal): 21.57%; % increase compared to control (thymidine uptake / DNA synthesis) ([1]; 0.5 mM, listed as Oxal): 33.26%; % increase compared to control (thymidine uptake / DNA synthesis) ([1]; 1 mM, listed as Oxal): 37.58% |
